The values below come from patent publication US20260325533A1, “CDK INHIBITOR COMPOUNDS” (ALEKSIA THERAPEUTICS, INC., priority 2023, published 2026).

Holding throughout (format): biochemical
One test has as its target CDK2/CCNE1 (Homo sapiens, UniProt P24941). The experiment in a line: CDK2 homogeneous time-resolved fluorescence (HTRF) kinase assay. The following applies: CDK2/CCNE. An outline of the steps:
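CDK2/CCNE1 (3 nM) preincubated 20 min at 23 °C with compound, then reacted 60 min at 23 °C with 1 mM ATP and 50 nM ULight-4E-BP1 (Thr37/46) peptide. Stopped with EDTA, phospho-peptide detected by Eu-anti-phospho antibody (665 nm or 665/615 ratio). IC50 from 11-point half-log titrations typically starting at 10 μM.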
For orientation: TR-FRET usually uses a lanthanide donor and a delayed reading to cut background.

In the next test the target is CDK1/CCNB1 (Homo sapiens, UniProt P06493). The experiment in a line: CDK1 homogeneous time-resolved fluorescence (HTRF) kinase assay. The following applies: >250 nM; CDK1/CCNB; read-out: CDK1/CCNB IC50 >250 nM. In a few lines: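 High-ATP (1 mM) HTRF assay with 0.5 nM CDK1/cyclin B1 and 50 nM ULight-4E-BP1 (Thr37/46) substrate, 60 min at 23 °C after 20-min compound preincubation. IC50 values come from dose-response curves.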

The next test has as its target CDK4/CCND3 (Homo sapiens, UniProt P11802). The experiment in a line: CDK4 homogeneous time-resolved fluorescence (HTRF) kinase assay. The settings on record: >250 nM; CDK4/CCND; read-out: CDK4/CCND IC50, >250 nM. An outline of the steps: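 Steps: compound plus 1.5 nM CDK4/CCND3, 20 min, 23 °C; add 1 mM ATP and 50 nM ULight-4E-BP1 (Thr37/46) peptide, 60 min; stop with 10 mM EDTA; add 2 nM Eu anti-phospho antibody, 60 min; read 665 nm. IC50 from 11-point half-log series starting 10 μM.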

The target in a further test is CDK6/CCND1 (Homo sapiens, UniProt Q00534). The experiment in a line: CDK6 homogeneous time-resolved fluorescence (HTRF) kinase assay. The settings on record: >250 nM; CDK6/CCND; 1 mM ATP; read-out: CDK6/CCND IC50, >250 nM. An outline of the steps: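 Enzyme pre-incubated 20 min at 23 °C with compound, then reacted 60 min at 23 °C with 1 mM ATP and 50 nM ULight-4E-BP1 (Thr37/46) peptide; 1 nM enzyme, 1% DMSO. EDTA-stopped, Eu-anti-phospho antibody TR-FRET read (665 nm or 665/615 ratio); 11-point half-log titration from 10 μM gave IC50.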

[1] abbreviates: <25 nM, read-out: CDK2/CCNE IC50, <25 nM.
Setting [2] is: 25-250 nM, read-out: CDK2/CCNE IC50, 25-250 nM.

Read-outs that look alike come from different tables or passages of the source.

Sequence of CDK1/CCNB1 (P06493 whole entry): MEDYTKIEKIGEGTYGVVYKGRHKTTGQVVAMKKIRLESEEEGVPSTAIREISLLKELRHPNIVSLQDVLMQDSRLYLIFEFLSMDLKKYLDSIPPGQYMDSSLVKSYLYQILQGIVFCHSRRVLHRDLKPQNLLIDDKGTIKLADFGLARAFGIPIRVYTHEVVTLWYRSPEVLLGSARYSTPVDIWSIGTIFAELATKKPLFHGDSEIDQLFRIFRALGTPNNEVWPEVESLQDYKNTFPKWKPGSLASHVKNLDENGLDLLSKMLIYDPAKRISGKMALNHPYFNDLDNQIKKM
Sequence of CDK1/CCNB1 (P14635 whole entry partner): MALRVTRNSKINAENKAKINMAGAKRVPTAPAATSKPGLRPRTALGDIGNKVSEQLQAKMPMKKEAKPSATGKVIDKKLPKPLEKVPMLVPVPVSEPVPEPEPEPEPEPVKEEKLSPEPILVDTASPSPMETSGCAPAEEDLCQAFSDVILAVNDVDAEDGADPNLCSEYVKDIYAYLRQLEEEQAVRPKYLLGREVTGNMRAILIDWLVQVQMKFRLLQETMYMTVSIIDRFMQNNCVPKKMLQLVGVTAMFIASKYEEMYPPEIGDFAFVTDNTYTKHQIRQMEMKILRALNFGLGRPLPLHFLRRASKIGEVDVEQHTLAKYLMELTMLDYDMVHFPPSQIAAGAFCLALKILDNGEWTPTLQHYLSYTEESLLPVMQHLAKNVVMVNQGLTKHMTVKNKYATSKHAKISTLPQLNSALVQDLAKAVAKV
Sequence of CDK6/CCND1 (Q00534 whole entry): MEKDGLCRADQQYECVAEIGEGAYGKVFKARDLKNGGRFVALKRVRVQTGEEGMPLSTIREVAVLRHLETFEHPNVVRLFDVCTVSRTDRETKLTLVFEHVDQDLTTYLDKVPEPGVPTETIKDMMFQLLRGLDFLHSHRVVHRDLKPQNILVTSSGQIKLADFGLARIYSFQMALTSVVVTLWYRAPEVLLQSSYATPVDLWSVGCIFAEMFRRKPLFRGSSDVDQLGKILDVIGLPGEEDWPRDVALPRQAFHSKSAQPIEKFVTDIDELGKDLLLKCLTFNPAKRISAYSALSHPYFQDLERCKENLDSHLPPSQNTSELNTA
Sequence of CDK6/CCND1 (P24385 whole entry partner): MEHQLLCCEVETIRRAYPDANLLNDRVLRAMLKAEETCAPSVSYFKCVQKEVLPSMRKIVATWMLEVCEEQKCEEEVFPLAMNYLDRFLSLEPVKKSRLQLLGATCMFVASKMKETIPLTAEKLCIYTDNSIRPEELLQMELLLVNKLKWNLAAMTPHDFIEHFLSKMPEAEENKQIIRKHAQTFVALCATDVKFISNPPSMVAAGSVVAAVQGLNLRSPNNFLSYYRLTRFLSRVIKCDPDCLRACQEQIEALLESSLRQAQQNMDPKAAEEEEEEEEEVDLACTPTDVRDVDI
Sequence of CDK4/CCND3 (P11802 whole entry): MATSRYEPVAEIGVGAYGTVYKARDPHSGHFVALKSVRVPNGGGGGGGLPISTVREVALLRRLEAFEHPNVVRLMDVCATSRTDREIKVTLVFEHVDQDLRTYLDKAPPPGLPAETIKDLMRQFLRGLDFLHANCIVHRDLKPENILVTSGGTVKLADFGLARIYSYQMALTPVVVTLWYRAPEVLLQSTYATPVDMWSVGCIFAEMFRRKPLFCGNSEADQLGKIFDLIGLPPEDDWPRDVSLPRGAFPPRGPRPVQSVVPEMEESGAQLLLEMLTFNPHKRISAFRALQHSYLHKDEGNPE
Sequence of CDK4/CCND3 (P30281 whole entry partner): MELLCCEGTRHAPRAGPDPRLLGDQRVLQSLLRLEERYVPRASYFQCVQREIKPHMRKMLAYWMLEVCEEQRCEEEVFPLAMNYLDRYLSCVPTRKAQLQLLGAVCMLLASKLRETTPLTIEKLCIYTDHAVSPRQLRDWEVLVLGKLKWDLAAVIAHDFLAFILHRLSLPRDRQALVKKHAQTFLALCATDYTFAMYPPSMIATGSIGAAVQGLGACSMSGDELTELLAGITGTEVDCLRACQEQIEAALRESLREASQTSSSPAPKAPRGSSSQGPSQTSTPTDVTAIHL

Consider `COc1cnc(NS(=O)(=O)c2ccc(Nc3cc4c(-c5ccc6c(cnn6CC(O)(C(F)(F)F)C(F)(F)F)c5C)nccc4cn3)cc2)nc1N1CCOCC1` [Ex 702, N-(5-methoxy-4-morpholinopyrimidin-2-yl)-4-((5-(4-methyl-1-(3,3,3-trifluoro-2-hydroxy-2-(trifluoromethyl)propyl)-1H-indazol-5-yl)-2,6-naphthyridin-3-yl)amino)benzenesulfonamide], for which the IC50 on CDK2/CCNE1 (setting [1]) was less than 25 nM; on CDK1/CCNB1, greater than 250 nM; at CDK4/CCND3, greater than 250 nM; at CDK6/CCND1 it was greater than 250 nM.
Consider `COc1cc(NS(=O)(=O)c2ccc(Nc3cc4c(-c5ccc6c(cnn6CC(O)(C(F)(F)F)C(F)(F)F)c5C)nccc4cn3)cc2)nc(N2CCOCC2)c1` [Ex 703, N-(4-methoxy-6-morpholinopyridin-2-yl)-4-((5-(4-methyl-1-(3,3,3-trifluoro-2-hydroxy-2-(trifluoromethyl)propyl)-1H-indazol-5-yl)-2,6-naphthyridin-3-yl)amino)benzenesulfonamide], for which the IC50 at CDK2/CCNE1 (setting [2]) is 25 to 250 nM; on CDK1/CCNB1, greater than 250 nM; at CDK4/CCND3, greater than 250 nM; on CDK6/CCND1, greater than 250 nM.
For the compound `COc1cc(N2CCOCC2)cc(NS(=O)(=O)c2ccc(Nc3cc4c(-c5ccc6c(cnn6CC(O)(C(F)(F)F)C(F)(F)F)c5C)nccc4cn3)cc2)n1` [Ex 704, N-(6-methoxy-4-morpholinopyridin-2-yl)-4-((5-(4-methyl-1-(3,3,3-trifluoro-2-hydroxy-2-(trifluoromethyl)propyl)-1H-indazol-5-yl)-2,6-naphthyridin-3-yl)amino)benzenesulfonamide], the IC50 at CDK2/CCNE1 (setting [2]) is 25 to 250 nM; at CDK1/CCNB1, greater than 250 nM; on CDK4/CCND3, greater than 250 nM; at CDK6/CCND1, greater than 250 nM.
As to `Cc1cnc(NS(=O)(=O)c2ccc(Nc3cc4c(-c5ccc6c(cnn6CC(O)(C(F)(F)F)C(F)(F)F)c5C)nccc4cn3)cc2)nc1N1CCOCC1` [Ex 706, 4-((5-(4-methyl-1-(3,3,3-trifluoro-2-hydroxy-2-(trifluoromethyl)propyl)-1H-indazol-5-yl)-2,6-naphthyridin-3-yl)amino)-N-(5-methyl-4-morpholinopyrimidin-2-yl)benzenesulfonamide], the IC50 at CDK2/CCNE1 (setting [1]) is less than 25 nM; on CDK1/CCNB1 it was greater than 250 nM; on CDK4/CCND3, greater than 250 nM; at CDK6/CCND1, greater than 250 nM.
As to `COc1cc(N2CCOCC2)nc(NS(=O)(=O)c2ccc(Nc3cc4c(-c5ccc6c(cnn6CC(O)(C(F)(F)F)C(F)(F)F)c5C)nccc4cn3)cc2)n1` [Ex 707, N-(4-methoxy-6-morpholinopyrimidin-2-yl)-4-((5-(4-methyl-1-(3,3,3-trifluoro-2-hydroxy-2-(trifluoromethyl)propyl)-1H-indazol-5-yl)-2,6-naphthyridin-3-yl)amino)benzenesulfonamide], the IC50 on CDK2/CCNE1 (setting [1]) was less than 25 nM; on CDK1/CCNB1, greater than 250 nM; on CDK4/CCND3 it was greater than 250 nM; at CDK6/CCND1, greater than 250 nM.
On to `COc1ccc(NS(=O)(=O)c2ccc(Nc3cc4c(-c5ccc6c(cnn6CC(O)(C(F)(F)F)C(F)(F)F)c5C)nccc4cn3)cc2)cc1C(C)(C)O` [Ex 709, N-(3-(2-hydroxypropan-2-yl)-4-methoxyphenyl)-4-((5-(4-methyl-1-(3,3,3-trifluoro-2-hydroxy-2-(trifluoromethyl)propyl)-1H-indazol-5-yl)-2,6-naphthyridin-3-yl)amino)benzenesulfonamide], for which the IC50 at CDK2/CCNE1 (setting [2]) was 25 to 250 nM; on CDK1/CCNB1, greater than 250 nM; at CDK4/CCND3, greater than 250 nM; on CDK6/CCND1, greater than 250 nM.
In the case of `Cc1c(-c2nccc3cnc(Nc4ccc(S(=O)(=O)Nc5cc(C(C)(C)O)ccn5)cc4)cc23)ccc2c1cnn2CC(O)(C(F)(F)F)C(F)(F)F` [Ex 710, N-(4-(2-hydroxypropan-2-yl)pyridin-2-yl)-4-((5-(4-methyl-1-(3,3,3-trifluoro-2-hydroxy-2-(trifluoromethyl)propyl)-1H-indazol-5-yl)-2,6-naphthyridin-3-yl)amino)benzenesulfonamide], the IC50 is less than 25 nM at CDK2/CCNE1 (setting [1]), greater than 250 nM on CDK1/CCNB1, greater than 250 nM on CDK4/CCND3 and greater than 250 nM on CDK6/CCND1.
Consider `Cc1c(-c2nccc3cnc(Nc4ccc(S(=O)(=O)Nc5cccc(C(C)(C)O)n5)cc4)cc23)ccc2c1cnn2CC(O)(C(F)(F)F)C(F)(F)F` [Ex 711, N-(6-(2-hydroxypropan-2-yl)pyridin-2-yl)-4-((5-(4-methyl-1-(3,3,3-trifluoro-2-hydroxy-2-(trifluoromethyl)propyl)-1H-indazol-5-yl)-2,6-naphthyridin-3-yl)amino)benzenesulfonamide], for which the IC50 at CDK2/CCNE1 (setting [1]) was less than 25 nM; on CDK1/CCNB1 it was greater than 250 nM; on CDK4/CCND3 it was greater than 250 nM; at CDK6/CCND1 it was greater than 250 nM.
On to `Cc1c(-c2nccc3cnc(Nc4ccc(S(=O)(=O)Nc5cccc(C(C)(C)O)c5)cc4)cc23)ccc2c1cnn2CC(O)(C(F)(F)F)C(F)(F)F` [Ex 712, N-(3-(2-hydroxypropan-2-yl)phenyl)-4-((5-(4-methyl-1-(3,3,3-trifluoro-2-hydroxy-2-(trifluoromethyl)propyl)-1H-indazol-5-yl)-2,6-naphthyridin-3-yl)amino)benzenesulfonamide], for which the IC50 was 25 to 250 nM on CDK2/CCNE1 (setting [2]), greater than 250 nM at CDK1/CCNB1, greater than 250 nM at CDK4/CCND3 and greater than 250 nM at CDK6/CCND1.
In the case of `Cc1c(-c2nccc3cnc(Nc4ccc(S(=O)(=O)Nc5ccccc5N5CCOCC5)cc4)cc23)ccc2c1cnn2CC(O)(C(F)(F)F)C(F)(F)F` [Ex 713, 4-((5-(4-methyl-1-(3,3,3-trifluoro-2-hydroxy-2-(trifluoromethyl)propyl)-1H-indazol-5-yl)-2,6-naphthyridin-3-yl)amino)-N-(2-morpholinophenyl)benzenesulfonamide], the IC50 on CDK2/CCNE1 (setting [2]) is 25 to 250 nM; at CDK1/CCNB1, greater than 250 nM; at CDK4/CCND3, greater than 250 nM; on CDK6/CCND1, greater than 250 nM.
As to `COc1ccccc1NS(=O)(=O)c1ccc(Nc2cc3c(-c4ccc5c(cnn5CC(O)(C(F)(F)F)C(F)(F)F)c4C)nccc3cn2)cc1` [Ex 714, N-(2-methoxyphenyl)-4-((5-(4-methyl-1-(3,3,3-trifluoro-2-hydroxy-2-(trifluoromethyl)propyl)-1H-indazol-5-yl)-2,6-naphthyridin-3-yl)amino)benzenesulfonamide], the IC50 is 25 to 250 nM on CDK2/CCNE1 (setting [2]), greater than 250 nM on CDK1/CCNB1, greater than 250 nM on CDK4/CCND3 and greater than 250 nM at CDK6/CCND1.
`Cc1ccccc1NS(=O)(=O)c1ccc(Nc2cc3c(-c4ccc5c(cnn5CC(O)(C(F)(F)F)C(F)(F)F)c4C)nccc3cn2)cc1` [Ex 715, 4-((5-(4-methyl-1-(3,3,3-trifluoro-2-hydroxy-2-(trifluoromethyl)propyl)-1H-indazol-5-yl)-2,6-naphthyridin-3-yl)amino)-N-(o-tolyl)benzenesulfonamide]: the IC50 at CDK2/CCNE1 (>250 nM, read-out: CDK2/CCNE IC50, >250 nM) was greater than 250 nM; on CDK1/CCNB1, greater than 250 nM; at CDK4/CCND3, greater than 250 nM; at CDK6/CCND1, greater than 250 nM.
`COc1cccc(NS(=O)(=O)c2ccc(Nc3cc4c(-c5ccc6c(cnn6CC(O)(C(F)(F)F)C(F)(F)F)c5C)nccc4cn3)cc2)c1` [Ex 717, N-(3-methoxyphenyl)-4-((5-(4-methyl-1-(3,3,3-trifluoro-2-hydroxy-2-(trifluoromethyl)propyl)-1H-indazol-5-yl)-2,6-naphthyridin-3-yl)amino)benzenesulfonamide]: the IC50 at CDK2/CCNE1 (setting [2]) was 25 to 250 nM; at CDK1/CCNB1, greater than 250 nM; at CDK4/CCND3, greater than 250 nM; on CDK6/CCND1, greater than 250 nM.
Regarding `COc1ccc(NS(=O)(=O)c2ccc(Nc3cc4c(-c5ccc6c(cnn6CC(O)(C(F)(F)F)C(F)(F)F)c5C)nccc4cn3)cc2)cc1` [Ex 718, N-(4-methoxyphenyl)-4-((5-(4-methyl-1-(3,3,3-trifluoro-2-hydroxy-2-(trifluoromethyl)propyl)-1H-indazol-5-yl)-2,6-naphthyridin-3-yl)amino)benzenesulfonamide], the IC50 is 25 to 250 nM at CDK2/CCNE1 (setting [2]), greater than 250 nM at CDK1/CCNB1, greater than 250 nM on CDK4/CCND3 and greater than 250 nM at CDK6/CCND1.
For the compound `COc1ccc(NS(=O)(=O)c2ccc(Nc3cc4c(-c5ccc6c(cnn6CC(O)(C(F)(F)F)C(F)(F)F)c5C)nccc4cn3)cc2)nc1` [Ex 719, N-(5-methoxypyridin-2-yl)-4-((5-(4-methyl-1-(3,3,3-trifluoro-2-hydroxy-2-(trifluoromethyl)propyl)-1H-indazol-5-yl)-2,6-naphthyridin-3-yl)amino)benzenesulfonamide], the IC50 on CDK2/CCNE1 (setting [2]) was 25 to 250 nM; on CDK1/CCNB1 it was greater than 250 nM; at CDK4/CCND3, greater than 250 nM; on CDK6/CCND1, greater than 250 nM.
